Test results published in patent US20040009952A1, “TGF-beta gene overexpression preventing substances for the treatment of disorders connected with pathological overexpression of TGF-beta” (priority 1998, published 2004).

Test system: TGF-β1 mRNA
Assay: Glucose- or PMA-induced TGF-β1 mRNA overexpression in porcine mesangial cells (RT-PCR, capillary electrophoresis)
Format: cell-based
Details: PMA; 10 μg/ml GAG; PMA alone 312; mean of 2 determinations
Source text: To assess the inhibitory activity of the GAG action on TGF-β1 overexpression an in vitro assay was established. In this assay structurally distinct GAGs were investigated for their activity to inhibit stimulated TGF-β1 mRNA overexpression in cultured target cell. For the development of glomerulosclerosis (e.g. diabetes) mesangial cells are one major pathological target. Mesangial cells were isolated, characterized and grown as decribed by Kolm et al. Am. J. Physiol. 270: F812-F821, 1996. Cells were stimulated with PMA in the presence and absence of a variety of 10 μg/ml of GAGs and related compounds. Cellular mRNA TGF-β1I levels were determined as decribed in Example II.
The separation and the precise quantification of the PCR products was performed on a Biofocus 3000 capillary electrophoresis system equipped with a laser-induced fluorescence detector (Bio-Rad, Munich, Germany) using an argon-ion laser. Excitation power was approximately 3.5 mW at =488 nm, and fluorescence emission was detected after passing through a 520 nm band pass filter. […] For on-column DNA fluorescence labeling, 1 μl Syber Green I (Molecular probes, Eugene, Or, USA) was addes per ml. […] The migration time for the PCR products was 5.2 min for TGF-β1 (161 bp) and 6.5 min for GAPDH (983 bp) All peak areas were calculated automatically using Biofocus Integration Software. […]

## chitosan-6-sulfate
  TGF-β1 mRNA: 116 % of control
